The source of these data is ChEMBL document CHEMBL2074050, “Reversal of MRP-mediated multidrug resistance in human lung cancer cells by the antiprogestatin drug RU486” (Biochem Biophys Res Commun, 1999).

Holding throughout (type): functional, cell-based
Data set [1] addresses T1, Multidrug resistance-associated protein 1 (Homo sapiens, UniProt P33527). Put plainly: TP_TRANSPORTER: increase in Calcein intracellular accumulation (Calcein: 0.5 uM, Progesterone: 50 uM) in GLC4/Sb30 cells. The note with it: glc4/sb30, 50 µM.
The target in data set [2] is T1, Multidrug resistance-associated protein 1. Put plainly: TP_TRANSPORTER: increase in Calcein intracellular accumulation (Calcein: 0.5 uM, Probenecid: 2000 uM) in GLC4/Sb30 cells. Particulars: glc4/sb30, 2000 µM.
Data set [3] has the same target. Put plainly: TP_TRANSPORTER: increase in Calcein intracellular accumulation (Calcein: 0.5 uM, RU486: 50 uM) in GLC4/Sb30 cells. Particulars: glc4/sb30, 50 µM.

T1 sequence (P33527 whole entry): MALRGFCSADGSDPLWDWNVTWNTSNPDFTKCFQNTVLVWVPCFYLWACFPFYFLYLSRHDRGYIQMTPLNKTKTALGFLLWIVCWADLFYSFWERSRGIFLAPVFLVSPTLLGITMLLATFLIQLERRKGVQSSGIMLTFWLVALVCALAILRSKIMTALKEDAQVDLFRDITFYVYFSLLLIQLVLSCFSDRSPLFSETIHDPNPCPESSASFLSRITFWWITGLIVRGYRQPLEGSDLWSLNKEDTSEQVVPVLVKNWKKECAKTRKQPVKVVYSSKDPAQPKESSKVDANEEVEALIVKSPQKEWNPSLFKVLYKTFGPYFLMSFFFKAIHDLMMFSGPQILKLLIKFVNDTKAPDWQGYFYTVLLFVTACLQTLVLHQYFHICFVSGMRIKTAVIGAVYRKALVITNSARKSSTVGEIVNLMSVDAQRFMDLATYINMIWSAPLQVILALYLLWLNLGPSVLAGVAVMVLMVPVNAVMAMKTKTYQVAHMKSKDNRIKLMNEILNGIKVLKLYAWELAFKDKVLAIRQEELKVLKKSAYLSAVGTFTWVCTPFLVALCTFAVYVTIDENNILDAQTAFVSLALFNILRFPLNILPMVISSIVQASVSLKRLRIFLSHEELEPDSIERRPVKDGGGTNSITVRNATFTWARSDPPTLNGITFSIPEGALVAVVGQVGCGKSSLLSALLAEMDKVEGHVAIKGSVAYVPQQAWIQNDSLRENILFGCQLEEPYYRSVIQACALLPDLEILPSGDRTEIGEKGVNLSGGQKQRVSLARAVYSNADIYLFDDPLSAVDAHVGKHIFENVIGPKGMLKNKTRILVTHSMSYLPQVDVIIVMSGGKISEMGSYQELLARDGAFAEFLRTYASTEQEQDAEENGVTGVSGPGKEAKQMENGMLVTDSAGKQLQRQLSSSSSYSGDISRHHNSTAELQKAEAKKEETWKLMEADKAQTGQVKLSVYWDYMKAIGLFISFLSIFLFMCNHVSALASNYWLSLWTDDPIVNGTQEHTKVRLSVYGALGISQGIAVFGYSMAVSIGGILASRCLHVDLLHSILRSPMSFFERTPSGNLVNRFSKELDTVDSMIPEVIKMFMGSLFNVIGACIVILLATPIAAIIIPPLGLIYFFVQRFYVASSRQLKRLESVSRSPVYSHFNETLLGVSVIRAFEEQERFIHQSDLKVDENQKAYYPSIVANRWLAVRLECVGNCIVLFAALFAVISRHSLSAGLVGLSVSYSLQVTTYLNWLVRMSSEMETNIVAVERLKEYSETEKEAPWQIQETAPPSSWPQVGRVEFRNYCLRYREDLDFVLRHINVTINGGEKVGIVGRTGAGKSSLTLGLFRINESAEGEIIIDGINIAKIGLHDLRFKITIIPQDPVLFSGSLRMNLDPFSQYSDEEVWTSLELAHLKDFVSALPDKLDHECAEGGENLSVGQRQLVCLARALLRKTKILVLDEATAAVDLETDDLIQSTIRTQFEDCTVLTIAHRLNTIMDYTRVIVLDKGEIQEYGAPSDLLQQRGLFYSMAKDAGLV

For `CC(=O)[C@H]1CC[C@H]2[C@@H]3CCC4=CC(=O)CC[C@]4(C)[C@H]3CC[C@]12C` [PROGESTERONE], the Activity result in data set [1] was “inhibitor [+]”.

`CCCN(CCC)S(=O)(=O)c1ccc(C(=O)O)cc1` [PROBENECID]: the Activity result in data set [2] is “inhibitor [+]”.

For the compound `CC#C[C@]1(O)CC[C@H]2[C@@H]3CCC4=CC(=O)CCC4=C3[C@@H](c3ccc(N(C)C)cc3)C[C@@]21C` [MIFEPRISTONE], in data set [3], the Activity entry is “inhibitor [+]”.
